In EP3056202A1, “BENZOPYRROLIDONE DERIVATIVES POSSESSING ANTIVIRAL AND ANTICANCER PROPERTIES” (Max-Planck-Gesellschaft zur Förderung der Wissenschaften …, priority 2015, dated 2016) one finds solubility, EC50 and IC50 data, which are given here for seven molecules.

One series is described as follows: physchem. In kind it is physicochemical. The note with it: kinetic from dmso stock. The procedure: Samples were diluted in DMSO (control), phosphate buffer pH = 7.4 and pH = 2.0, from 5mM stock solutions (solved in DMSO), with a 120 µM final concentration. The samples were incubated for 24 hours at room temperature followed by 30 minutes centrifugation at 3700 rpm. 40 µl of the supernatants were injected into HPLC (Waters 2795 Alliance HPLC equipped with Waters 996 PDA Detector (HPLC column: Waters XBridge, RP C18, 3.5 µm, 4.6 mm x 50 mm; gradient MeCN/H2O, containing 0.1% HCOOH: 5% MeCN (0.5 min), 5% to 95% MeCN (5 min), 95% MeCN (0.5 min); flow rate: 2.0 ml/min)) and the AUC values (measured on sample specific wavelength) of the buffered samples were divided by the AUC values (same wavelength as buffered samples') of the DMSO control samples. Table 3: Solubility in water for several compounds according to general formula (I)

Series [1] deals with A549 human lung carcinoma cells. Description: Cell-based EC50 determination, A549 cells (CellTiter-Glo cell viability). Particulars: A549, 24 h, read-out: A549 EC50 24h. As for the experimental part:
A549 human lung carcinoma cells were cultured in RPMI 1640 medium (Sigma) supplemented with 10% fetal bovine serum (Sigma) and Antibiotic-Antimycotic (Sigma) in tissue culture flasks at 37°C in a humidified 5% CO2 atmosphere. Cells were routinely assayed for mycoplasma contamination.
Two thousand cells were plated in 384-well tissue culture plates, and treated after 24 hours with a 10-point dilution series of the compounds (1.5 nM-30 uM), using the vehicle, DMSO as control. Cells were incubated for 24 hours after which the relative cell density was determined by CellTiter-Glo Luminescent Cell Viability Assay (Promega). This method determines the number of metabolically active cells in the culture based on quantitation of the ATP present. The luminescent signal was measured with an Analyst GT multimode reader (Molecular Devices). […]
On the technique in general: Cellular ATP, detected with luciferase, serves as a proxy for viable cell number.

A further series addresses T1, human Clk1 kinase (Homo sapiens, UniProt P49759).
T1 construct: Each reaction consisted of 4 nM enzyme: Clk1 kinase domain
Description: In vitro Clk1 assay (IMAP fluorescence polarization). In kind it is biochemical. Particulars: 0.45 µM ATP. As for the experimental part:
The activity of the compounds described in the present invention can be determined by the following kinase assay, which measures the phosphorylation of a fluorescently-labeled peptide by human Clk1 kinase by fluorescent polarization using a commercially available IMAP Screening Express Assay Kit (Molecular Devices).
Clk1 kinase assays were performed in low protein binding 384-well plates (Corning). Test compounds were diluted in 100% DMSO to 5 mM stock concentration and then further dilutions were made in H2O or 100% DMSO to desirable concentrations.
Each reaction consisted of 4 nM enzyme: Clk1 kinase domain, 400 nM TAMRA-AFRREWSPGKEAKK-NH2 (Genecust), 0.45 µM ATP (Sigma) and kinase buffer: 20 mM TRIS pH 8, 1 mM DTT, 0.4 mM MgCl2, 0.4 mM MnCl2, 0.01 V/V% Tween20 (all reagents from Sigma-Aldrich)
For each reaction, 4 or 6 µl containing TAMRA-peptide, ATP and kinase buffer were combined with 2 µl diluted compound in H2O or 0.02 µl compound in 100% DMSO. The kinase reaction was started by the addition of 2 µl diluted enzyme. The reaction was allowed to run for 1 hour at room temperature. The reaction was stopped by adding 15 µl IMAP beads (1:600 beads in progressive (80 % buffer A, 20% buffer B) 1x buffer). After an additional hour, fluorescent polarization (Ex: 550-10 nm, Em: 590-10 nm, Dich: 561 nm) was measured using an Analyst GT (Molecular Devices).

Series [2] concerns H1 N1 influenza virus strain A/WSN/33. The series can be described thus: microbe, parasite or virus in culture. Particulars: 36 h, read-out: Influenza replication IC50. Type of series: cell-based.
Another series concerns the target human Akt1 kinase (Homo sapiens, UniProt P31749). The series can be described thus: In vitro Akt1 assay (IMAP fluorescence polarization, phosphorylation of TAMRA-peptide). Type of series: biochemical. The note with it: 40 µM ATP. As for the experimental part:
The inhibition of Akt1 by the compounds described in the present invention were determined measuring the phosphorylation of a fluorescently-labeled peptide (TAMRA-peptide) by human Akt1 kinase by fluorescent polarization using a commercially available IMAP Screening Express Assay Kit (Molecular Devices).
Akt1 kinase assays were performed in low protein binding 384-well plates (Corning). Test compounds were diluted in 100% DMSO to 5 mM stock concentration and then further dilutions were made in H2O or 100% DMSO to desirable concentrations.
Each reaction consisted of 5 nM enzyme: Akt1 kinase, 400 nM TAMRA-peptide (5-TAMRA-GRTGRRNSI-COOH; Genecust), 40 µM ATP and kinase buffer: 20 mM MES pH6, 1 mM DTT, 10 mM MgCl2, 2 mM MnCl2, 0.01 V/V% TritonX (all reagents from Sigma-Aldrich).
For each reaction, 4 or 6 µl containing TAMRA-peptide, ATP and kinase buffer were combined with 2 µl diluted compound in H2O or 0.02 µl compound in 100% DMSO. The kinase reaction was started by the addition of 2 µl diluted enzyme. The reaction was allowed to run for 1 hour at room temperature. The reaction was stopped by adding 15 µl IMAP beads (1:400 beads in progressive (75% buffer A, 25% buffer B) 1x buffer). After an additional hour, fluorescent polarization (Ex: 550-10 nm, Em: 590-10 nm, Dich: 561 nm) was measured using an Analyst GT (Molecular Devices).

Series [3] has as its system HepG2 hepatoblastomaderived cell line. The series can be described thus: In vitro growth inhibition, HepG2 (CellTiter-Glo). In kind it is cell-based. Particulars: Homo sapiens, 72 hours incubation.
Series [4] has as its system HKE3 human colon carcinoma cell line. Description: In vitro growth inhibition of colon carcinoma cells, HKE3 (CellTiter-Glo). Particulars: 72 hours incubation. Type of series: cell-based.
Series [5] concerns HCT-116 human colon carcinoma cell line. The series can be described thus: In vitro growth inhibition of colon carcinoma cells, HCT-116 (CellTiter-Glo). Type of series: cell-based. Particulars: 72 hours incubation, read-out: HCT116 EC50.

Each structure is given as a SMILES string. Converted amounts (≈) assume the structure as drawn.

T1 sequence (P49759 161-477 limits assumed): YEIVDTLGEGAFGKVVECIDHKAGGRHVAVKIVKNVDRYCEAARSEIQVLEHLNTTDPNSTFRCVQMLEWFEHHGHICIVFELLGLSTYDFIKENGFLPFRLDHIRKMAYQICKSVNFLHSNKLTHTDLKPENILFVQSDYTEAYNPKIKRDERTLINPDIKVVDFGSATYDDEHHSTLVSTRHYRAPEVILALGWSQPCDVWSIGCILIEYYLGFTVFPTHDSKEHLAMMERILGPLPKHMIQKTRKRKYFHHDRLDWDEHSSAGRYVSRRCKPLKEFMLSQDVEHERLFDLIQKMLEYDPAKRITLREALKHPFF
Sequence of human Akt1 kinase (P31749 whole entry): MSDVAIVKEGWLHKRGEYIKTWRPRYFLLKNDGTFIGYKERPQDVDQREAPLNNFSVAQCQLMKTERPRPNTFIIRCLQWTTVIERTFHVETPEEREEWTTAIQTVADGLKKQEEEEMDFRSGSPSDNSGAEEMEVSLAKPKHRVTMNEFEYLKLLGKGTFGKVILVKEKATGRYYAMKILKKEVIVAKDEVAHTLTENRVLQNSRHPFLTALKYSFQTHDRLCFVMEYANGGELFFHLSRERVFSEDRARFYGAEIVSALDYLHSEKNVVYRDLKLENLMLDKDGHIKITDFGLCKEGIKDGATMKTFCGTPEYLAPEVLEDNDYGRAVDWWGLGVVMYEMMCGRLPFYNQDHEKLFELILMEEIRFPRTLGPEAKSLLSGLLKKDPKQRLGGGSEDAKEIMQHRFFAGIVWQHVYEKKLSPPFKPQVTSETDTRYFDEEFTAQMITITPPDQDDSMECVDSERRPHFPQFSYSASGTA

Take `CC[C@H](NC(=O)c1ccc2c(c1)/C(=C(/Nc1ccc(CN3CCCCC3)cc1)c1ccccc1)C(=O)N2)c1ccccc1` [Compound 32, (3Z)-2-oxo-3-(phenyl{[4-(piperidin-1-ylmethyl)phenyl]amino}methylene)-N-[(1S)-1-phenylpropyl]indoline-5-carboxamide]: the solubility at 24 h in the series “physchem” (pH 2, aqueous buffer) is 110 to 120 µM (≈ 62.8 to 68.5 µg/mL); in “physchem” (pH 7.4, aqueous buffer), less than 10 µM. In addition, the EC50 in series [1] turned out to be 6380 nM. Besides, the IC50 is 100 nM at human Clk1 kinase, 10100 nM in series [2] and more than 12500 nM on human Akt1 kinase.

For `COc1cccc([C@@H](C)NC(=O)c2ccc3c(c2)/C(=C(/Nc2ccc(CN4CCN(C)CC4)cc2)c2ccccc2)C(=O)N3)c1` [Compound 35, (3Z)-N-[(1R)-1-(3-methoxyphenyl)ethyl]-3-[({4-[(4-methylpiperazin-1-yl)methyl]phenyl}amino)(phenyl)methylene]-2-oxoindoline-5-carboxamide], the EC50 in series [3] was 2120 nM; in series [4], 20 nM; in series [1], 4990 nM; in series [5], 30 nM. In addition, the solubility at 24 h in the series “physchem” (pH 2, aqueous buffer) lay within 110 to 120 µM (≈ 66.2 to 72.2 µg/mL); in “physchem” (pH 7.4, aqueous buffer) it was 10 to 20 µM (≈ 6.02 to 12 µg/mL). Further, the IC50 at human Clk1 kinase came to 10 nM; in series [2], 20 nM; against human Akt1 kinase it was 2510 nM.

Take `C[C@@H](NC(=O)c1ccc2c(c1)/C(=C(/Nc1ccc(CN3CCN(C)CC3)cc1)c1ccccc1)C(=O)N2)c1cccc(Cl)c1` [Compound 36, (3Z)-N-[(1R)-1-(3-chlorophenyl)ethyl]-3-[({4-[(4-methylpiperazin-1-yl)methyl]phenyl}amino)(phenyl)methylene]-2-oxoindoline-5-carboxamide]: the EC50 in series [3] came out at 640 nM; in series [4] it was 20 nM; in series [1], 1770 nM; in series [5], 20 nM. The solubility at 24 h in “physchem” (pH 2, aqueous buffer) was 100 to 110 µM (≈ 60.6 to 66.7 µg/mL); in “physchem” (pH 7.4, aqueous buffer) it was less than 10 µM. Moreover, the IC50 was 20 nM at human Clk1 kinase, less than 10 nM in series [2] and 330 nM on human Akt1 kinase.

In the case of `CC[C@@H](NC(=O)c1ccc2c(c1)/C(=C(/Nc1ccc(CN3CCN(C)CC3)cc1)c1ccccc1)C(=O)N2)c1ccccc1` [Compound 37, (3Z)-3-[({4-[(4-methylpiperazin-1-yl)methyl]phenyl}amino)(phenyl)methylene]-2-oxo-N-[(1R)-1-phenylpropyl]indoline-5-carboxamide], the EC50 in series [3] is 360 nM; in series [4] it was less than 1.52 nM; in series [1] it was 2010 nM; in series [5] it was 1 nM. For the same molecule, the solubility at 24 h in the series “physchem” (pH 2, aqueous buffer) is 110 to 120 µM (≈ 64.4 to 70.3 µg/mL); in “physchem” (pH 7.4, aqueous buffer) it was less than 10 µM. The values for the IC50 (at human Clk1 kinase; in series [2]; at human Akt1 kinase) were 10 nM, less than 10 nM and 2050 nM, respectively.

For `C[C@@H](NC(=O)c1ccc2c(c1)/C(=C(/Nc1ccc(CN3CCN(C)CC3)cc1)c1ccccc1)C(=O)N2)c1ccccc1` [Compound 38, (3Z)-3-[({4-[(4-methylpiperazin-1-yl)methyl]phenyl}amino)(phenyl)methylene]-2-oxo-N-[(1R)-1-phenylethyl]indoline-5-carboxamide], the EC50 in series [3] worked out at 1120 nM; in series [4] it was 10 nM; in series [1] it was 3670 nM; in series [5], 10 nM. Also, the solubility at 24 h in “physchem” (pH 2, aqueous buffer) fell in the range of 110 to 120 µM (≈ 62.9 to 68.6 µg/mL); in the series “physchem” (pH 7.4, aqueous buffer), 10 to 20 µM (≈ 5.72 to 11.4 µg/mL). Further, the IC50 was 10 nM at human Clk1 kinase, less than 10 nM in series [2] and 1830 nM against human Akt1 kinase.

As to `COc1ccc(CNC(=O)c2ccc3c(c2)/C(=C(/Nc2ccc(CN4CCN(C)CC4)cc2)c2ccccc2)C(=O)N3)cc1OC` [Compound 39, (3Z)-N-(3,4-dimethoxybenzyl)-3-[({4-[(4-methylpiperazin-1-yl)methyl]phenyl}amino)(phenyl)methylene]-2-oxoindoline-5-carboxamide], the EC50 in series [3] turned out to be 24200 nM; in series [4] it was 2960 nM; in series [1], 18800 nM; in series [5], 3800 nM. Further, the solubility at 24 h in “physchem” (pH 2, aqueous buffer) was 110 to 120 µM (≈ 68 to 74.1 µg/mL); in “physchem” (pH 7.4, aqueous buffer), less than 10 µM. The values for the IC50 (against human Clk1 kinase; in series [2]; on human Akt1 kinase) were 10 nM, 100 nM and 12300 nM, respectively.

Consider `COc1cccc(CNC(=O)c2ccc3c(c2)/C(=C(/Nc2ccc(CN4CCN(C)CC4)cc2)c2ccccc2)C(=O)N3)c1` [Compound 40, (3Z)-N-(3-methoxybenzyl)-3-[({4-[(4-methylpiperazin-1-yl)methyl]phenyl}amino)(phenyl)methylene]-2-oxoindoline-5-carboxamide], for which the EC50 was determined as 10000 nM in series [3], 80 nM in series [4], 14600 nM in series [1] and 110 nM in series [5]. Further, the solubility at 24 h in the series “physchem” (pH 2, aqueous buffer) was 110 to 120 µM (≈ 64.6 to 70.5 µg/mL); in the series “physchem” (pH 7.4, aqueous buffer) it was less than 10 µM. Besides, the values for the IC50 (against human Clk1 kinase; in series [2]; at human Akt1 kinase) were 10 nM, less than 10 nM and 3400 nM, respectively.

What is called solubility is how much of the substance goes into solution per volume. Low readings indicate a poorly soluble substance, high ones a readily soluble substance. What is called EC50 is the concentration giving half of the maximal effect. One may read the IC50 as the midpoint of a concentration-inhibition curve.
